The results in this text go back to patent publication US20260306464A1, “LINAPRAZAN GLURATE FOR TREATING GASTROESOPHAGEAL REFLUX DISEASE (GERD)” (Cinclus Pharma Holding AB (publ), priority 2023, published 2026).

Data set [1] in a line: Dynamic vapour sorption (DVS) analysis. In kind it is physicochemical. The protocol: In some embodiments, Form 1 of the HCl salt of linaprazan glurate is stable at a relative humidity up to 90% at a temperature of 25° C.
A short description of data set [2]: LEED study: endoscopic healing of erosive esophagitis / LA grade improvement after 4 weeks. In kind it is in vivo, human. The conditions noted are these: lansoprazole 30 mg QD. The text has this: The severity of esophagitis is typically indicated using the Los Angeles (LA) classification of reflux esophagitis, which is based on an endoscopic assessment of the patient. The LA grade scoring system divides reflux esophagitis into four categories (LA grade A to D) based on the extent of esophageal mucosal breaks. […] LA grade C esophagitis is defined as one or more mucosal breaks that are continuous between the tops of two mucosal folds, but which involves less than 75% of the esophageal circumference. The most severe form, LA grade D esophagitis, is defined as one or more mucosal breaks involving at least 75% of the esophageal circumference (Lundell et al., Gut 1999, vol. 45, p. 172-180).
As used herein, the terms “improvement of the LA grade” and “LA grade improvement” refer to one or more steps from one LA grade to a lower LA grade (such as from grade D to grade C, B or A) or to being healed. In some embodiments, the improvement of the LA grade is 1 step. In some embodiments, the improvement of the LA grade is 2 steps. In some embodiments, the improvement of the LA grade is 3 steps. In some embodiments, the improvement of the LA grade is 4 steps.
The study included patients with erosive esophagitis (eGERD). Patients were divided into two cohorts, one with patients having moderate to severe eGERD (LA grade C/D) and one with patients having milder eGERD (LA grade A/B) with a history of only partial response to PPI-treatment. The primary endpoint of the study was to support dose selection of linaprazan glurate for the phase III program in eGERD, through central assessment of healing of erosive esophagitis after four weeks of treatment. The sample size, i.e., the number of patients needed, for measuring dose related efficacy was based on the patient cohort with moderate to severe eGERD. After initial endoscopy and other screening procedures, 248 patients were randomized equally into one of five treatment groups, receiving either four weeks treatment with linaprazan glurate in four dose levels, or four weeks lansoprazole in the approved standard eGERD healing dose. Thereafter, an endoscopic evaluation of healing was performed, where healing was defined as no presence of esophageal erosions, i.e., no erosive damage to the esophageal mucosa. After the endoscopic evaluation, all patient groups received lansoprazole for four weeks in a maintenance phase. A retrospective central review of the endoscopy findings was performed, and 162 patients were available for evaluation of the primary endpoint. All enrolled 248 patients were included in the safety analysis.
(§1) The study was a randomized, double-blind, active comparator-controlled study with a parallel group design including four arms with linaprazan glurate and one arm with lansoprazole. Pharmacokinetic (PK) blood sampling pre-dose, close before the first and the second dose administration was performed at Day 7, Day 14 and Day 28 visits days in all patients. 248 patients with erosive esophagitis due to GERD LA grade C or D and patients with erosive esophagitis due to GERD LA grade A or B with at least partial symptom response but still endoscopically unhealed after 8 weeks history of standard treatment healing course with PPI, were randomized.
(§2) Randomization to one of the treatments with linaprazan glurate 25 mg, 50 mg, 75 mg, 100 mg twice daily (BID), or lansoprazole 30 mg once daily (QD) was based on a 1:1:1:1:1 scheme. One site could not enroll more than about 20% of the overall number of patients (48 patients per site).
The duration of each patient's participation in the study, including screening, blind treatment period and open-label treatment period, was approximately 60 days. The patients were randomized for 4 weeks (28 days, −2/+5 days) of double-blind treatment and were provided with IMP for 35 days (including one additional blister pack dispensed at Visit 2/Day 0) to allow for treatment up to the visit window. […]

Data set [3] in a line: LEED study: heartburn assessed by mRESQ-eDiary. In kind it is in vivo, human.
From the text: Relief of reflux-related symptoms may be assessed based on the modified Reflux Symptom Reflux Questionnaire-electronic Diary (mRESQ-eDiary), which is an electronic symptom diary developed for use in partial responders to proton pump inhibitors. mRESQ-eD has three domains (i.e., heartburn, other GERD signs/symptoms and regurgitations/reflux) and eight items (Andrae et al., Clin. Transl. Gastroenterol. 2020, 11(1): e00117).
as §1, §2
The duration of each patient's participation in the study, including screening, blind treatment period and open-label treatment period, was approximately 60 days. The patients were randomized for 4 weeks (28 days, −2/+5 days) of double-blind treatment and were provided with IMP for 35 days (including one additional blister pack dispensed at Visit 2/Day 0) to allow for treatment up to the visit window. […] Following the endoscopic evaluation, all patients received subsequent 4 weeks of open-label treatment with lansoprazole 30 mg QD. Repeated symptom evaluation to detect symptom pattern was assessed during this period.
Four doses of linaprazan glurate (25 mg, 50 mg, 75 mg, 100 mg, and dummies) were administered as tablets twice daily. The active comparator lansoprazole 30 mg and its dummy were administered as capsules once daily in the morning. The study drugs were taken with 100 mL of noncarbonated water at least 30 minutes prior to meals. The duration of double-blind treatment was 28 days −2/+5 days. To blind treatment, each patient received 2 tablets (containing doses of linaprazan glurate (LG) or its dummy) and one capsule (containing lansoprazole or its dummy) in the morning and 2 tablets (containing doses of linaprazan glurate (LG) or its dummy) in the evening, according to the scheme below:
A secondary objective of the study was the safety and tolerability of the four dose levels of linaprazan glurate and lansoprazole, with lansoprazole serving as the active comparator. Another secondary objective of the study was the reflux related symptom pattern during the initial 4 weeks treatment with four dose levels of linaprazan glurate and with lansoprazole, and the symptom pattern during the subsequent additional 4 weeks (weeks 5-8) open-label treatment with lansoprazole 30 mg QD. Heartburn-free 24-hour days and 24-hour days with at most mild heartburn symptoms were assessed based on modified eDiary (mRESQ-eD), including splits into day- and nighttime evaluations.
Reflux related symptoms were assessed based on a modified RESQ-eDiary (mRESQ-eD). Patients were asked to report every 12-hours, once before the morning dose and once before the evening dose of the Investigational Medicinal Product (IMP).

A short description of data set [4]: LEED study: safety and tolerability (adverse events). As to conditions: TEAE, LAN 30 mg QD.
The mark [5] stands for this setting: week 4, erosive patients all LA grades, LAN 30 mg QD (N = 20).

In the case of `Cc1cccc(C)c1CNc1cc(C(=O)NCCOC(=O)CCCC(=O)O)cn2c(C)c(C)nc12`, the water uptake entry in data set [1] (90% RH) was “about 0.2%”. Also, the “water content of the crystals on humidity changes” value in data set [1] (about 30% to about 80% RH) is on record as “remains substantially constant”. The hygroscopicity result in data set [1] (dynamic vapour sorption) is “very low hygroscopicity”.

For `Cc1c(OCC(F)(F)F)ccnc1C[S+]([O-])c1nc2ccccc2[nH]1` (centres unmarked) [lansoprazole, reference compound], in data set [2] (LA grade A/B), the four-week healing rate was found to be 81%. Further, the healing rate in data set [2] (LA grade A/B/C/D, 4 weeks, FIG. 8) amounted to 69%. Besides, in data set [2] (LA grade C/D, 4 weeks, FIG. 5), the “mean LA grade improvement” value is on record as 2.1. This compound also showed a four-week healing rate in data set [2] (LA grade C/D) of 38%. The “heartburn severity, rank among groups” value in data set [3] (FAS Erosive, first week, morning and evening, lansoprazole 30 mg QD) is listed as “highest heartburn severity”. Moreover, in data set [3] (FAS, first week, morning and evening, lansoprazole 30 mg QD), the “severity grade of heartburn, rank among groups” value is given as “highest severity grade of heartburn”. The “heartburn-free days, rank among groups” value in data set [3] (LA Grade A/B, week 4, lansoprazole 30 mg QD) was “most heartburn-free days”. Besides, in data set [3] (LA Grade A/B, week 6 open-label, lansoprazole group), the “heartburn-free days, rank among groups” value is on record as “highest”. In data set [3] (LA Grade C/D, week 2-4, lansoprazole 30 mg QD), the “heartburn-free days, rank among groups” value was “lowest percentage of heartburn-free days”. For the same compound, in data set [3] (LA Grade C/D, week 5-8 open-label, lansoprazole group), the “heartburn-free days, rank among groups” value is reported as “lowest percentage of heartburn-free days”. Besides, in data set [3] (setting [5]), the “% at most mild symptoms 24-hour days (mean)” value stood at 88%, the “% heartburn-free 24-hour days (mean)” value was 52%, the “Patients (%) totally free from heartburn” value came out at 32% and the “Patients (%) with at most mild heartburn” value came to 79%. Also, the “Patients (%) with non-mild heartburn” value in data set [3] (setting [5]) stood at 21%. Moreover, in data set [4], the “COVID-19 (%)” value came to 4.0%, the COVID-19 events was 2 events, the “Constipation (%)” value is 0.0% and the Constipation events was 0 events. In data set [4], the “Headache (%)” value was determined as 2.0%, the Headache events was found to be 1 events, the “Nausea (%)” value was determined as 8.0% and the Nausea events is 4 events.
